From PubChem BioAssay (NCI)
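GI50 is the concentration that inhibits growth by half. Definition used: TGI = concentration required for complete inhibition of growth.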

Experiments:
Test in all cases: DTP human tumour cell line panel, 384-well format
BT-549 breast = system: BT-549 breast
PC-3 prostate = system: PC-3 prostate
HCT-15 colon = system: HCT-15 colon
NCI-H23 lung = system: NCI-H23 lung
U251 glioblastoma = system: U251 glioblastoma
OVCAR-8 ovarian = system: OVCAR-8 ovarian
OVCAR-3 ovarian = system: OVCAR-3 ovarian
SK-MEL-5 melanoma = system: SK-MEL-5 melanoma
MOLT-4 leukemia = system: MOLT-4 leukemia
EKVX NSCLC = system: EKVX NSCLC
ACHN renal = system: ACHN renal
HT29 colon = system: HT29 colon
NCI-H460 NSCLC = system: NCI-H460 NSCLC
CCRF-CEM leukemia = system: CCRF-CEM leukemia
CAKI-1 renal = system: CAKI-1 renal
NCI-H322M lung = system: NCI-H322M lung
SK-MEL-2 melanoma = system: SK-MEL-2 melanoma
HS 578T breast = system: HS 578T breast
UACC-62 melanoma = system: UACC-62 melanoma
MALME-3M melanoma = system: MALME-3M melanoma
A549 NSCLC = system: A549 NSCLC
A498 renal = system: A498 renal
SNB-19 CNS = system: SNB-19 CNS
786-0 renal = system: 786-0 renal
MDA-MB-435 melanoma = system: MDA-MB-435 melanoma
RPMI-8226 leukemia = system: RPMI-8226 leukemia
SK-OV-3 ovarian = system: SK-OV-3 ovarian
TK-10 renal = system: TK-10 renal
K-562 leukemia = system: K-562 leukemia
HOP-62 NSCLC = system: HOP-62 NSCLC
COLO 205 colon = system: COLO 205 colon
DU-145 prostate = system: DU-145 prostate
UACC-257 melanoma = system: UACC-257 melanoma
SF-539 CNS = system: SF-539 CNS
RXF 393 renal = system: RXF 393 renal
M14 melanoma = system: M14 melanoma
SN12C renal = system: SN12C renal
SK-MEL-28 melanoma = system: SK-MEL-28 melanoma
SF-268 CNS = system: SF-268 CNS
HCC-2998 colon = system: HCC-2998 colon
SW-620 colon = system: SW-620 colon
OVCAR-4 ovarian = system: OVCAR-4 ovarian
MDA-MB-468 breast = system: MDA-MB-468 breast
SF-295 CNS = system: SF-295 CNS
MCF7 breast = system: MCF7 breast
LOX IMVI melanoma = system: LOX IMVI melanoma
KM12 colon = system: KM12 colon
NCI-H226 lung = system: NCI-H226 lung
HOP-92 NSCLC = system: HOP-92 NSCLC
NCI-H522 lung = system: NCI-H522 lung
HCT-116 colon = system: HCT-116 colon
NCI/ADR-RES ovarian = system: NCI/ADR-RES ovarian
SNB-75 CNS = system: SNB-75 CNS
HL-60(TB) leukemia = system: HL-60(TB) leukemia
IGROV1 ovarian = system: IGROV1 ovarian

O=C1C=CC(Nc2ccccc2[N+](=O)[O-])C1Nc1ccccc1[N+](=O)[O-] (stereo not given)
GI50 (BT-549 breast): 1.58 µM | TGI (BT-549 breast): 3.08 µM | GI50 (PC-3 prostate): 1.58 µM | TGI (PC-3 prostate): 2.96 µM | GI50 (HCT-15 colon): 1.56 µM | TGI (HCT-15 colon): 2.94 µM | GI50 (NCI-H23 lung): 1.98 µM | TGI (NCI-H23 lung): 3.62 µM | GI50 (U251 glioblastoma): 2.11 µM | TGI (U251 glioblastoma): 3.78 µM | GI50 (OVCAR-8 ovarian): 1.66 µM | TGI (OVCAR-8 ovarian): 3.06 µM | GI50 (OVCAR-3 ovarian): 1.52 µM | TGI (OVCAR-3 ovarian): 2.87 µM | GI50 (SK-MEL-5 melanoma): 1.75 µM | TGI (SK-MEL-5 melanoma): 3.2 µM | GI50 (MOLT-4 leukemia): 0.344 µM | TGI (MOLT-4 leukemia): 1.09 µM | GI50 (EKVX NSCLC): 3.02 µM | TGI (EKVX NSCLC): 8.07 µM | GI50 (ACHN renal): 1.62 µM | TGI (ACHN renal): 3.01 µM | GI50 (HT29 colon): 1.62 µM | TGI (HT29 colon): 3.15 µM | GI50 (NCI-H460 NSCLC): > 100 µM | TGI (NCI-H460 NSCLC): > 100 µM | GI50 (CCRF-CEM leukemia): 0.386 µM | TGI (CCRF-CEM leukemia): 1.35 µM | GI50 (CAKI-1 renal): 1.29 µM | TGI (CAKI-1 renal): 2.58 µM | GI50 (NCI-H322M lung): 13.8 µM | TGI (NCI-H322M lung): 26.9 µM | GI50 (SK-MEL-2 melanoma): 0.445 µM | TGI (SK-MEL-2 melanoma): 1.29 µM | GI50 (HS 578T breast): 1.84 µM | TGI (HS 578T breast): 3.42 µM | GI50 (UACC-62 melanoma): 1.68 µM | TGI (UACC-62 melanoma): 3.1 µM | GI50 (MALME-3M melanoma): 2.27 µM | TGI (MALME-3M melanoma): 3.74 µM | GI50 (A549 NSCLC): 3.54 µM | TGI (A549 NSCLC): 11.8 µM | GI50 (A498 renal): 2.01 µM | TGI (A498 renal): 3.8 µM | GI50 (SNB-19 CNS): 5.2 µM | TGI (SNB-19 CNS): 15.6 µM | GI50 ([…]-0 renal): 1.78 µM | TGI (786-0 renal): 3.32 µM | GI50 (MDA-MB-435 melanoma): 2.4 µM | TGI (MDA-MB-435 melanoma): 5.28 µM | GI50 (RPMI-8226 leukemia): 0.222 µM | TGI (RPMI-8226 leukemia): 0.41 µM | GI50 (SK-OV-3 ovarian): 4.5 µM | TGI (SK-OV-3 ovarian): 15.9 µM | GI50 (TK-10 renal): 1.65 µM | TGI (TK-10 renal): 3.03 µM | GI50 (K-562 leukemia): 4.85 µM | TGI (K-562 leukemia): 15 µM | GI50 (HOP-62 NSCLC): 2.3 µM | TGI (HOP-62 NSCLC): 3.94 µM | GI50 (COLO 205 colon): 1.91 µM | TGI (COLO 205 colon): 3.37 µM | GI50 (DU-145 prostate): 4.87 µM | TGI (DU-145 prostate): 15.7 µM | GI50 (UACC-257 melanoma): 1.83 µM | TGI (UACC-257 melanoma): 3.23 µM | GI50 (SF-539 CNS): 1.59 µM | TGI (SF-539 CNS): 2.95 µM | GI50 (RXF 393 renal): 1.71 µM | TGI (RXF 393 renal): 3.11 µM | GI50 (M14 melanoma): 1.71 µM | TGI (M14 melanoma): 3.16 µM | GI50 (SN12C renal): 1.76 µM | TGI (SN12C renal): 3.15 µM | GI50 (SK-MEL-28 melanoma): 1.95 µM | TGI (SK-MEL-28 melanoma): 3.41 µM | GI50 (SF-268 CNS): 2.34 µM | TGI (SF-268 CNS): 4.42 µM | GI50 (HCC-2998 colon): 2.05 µM | TGI (HCC-2998 colon): 4.78 µM | GI50 (SW-620 colon): 1.73 µM | TGI (SW-620 colon): 3.15 µM | GI50 (OVCAR-4 ovarian): 1.78 µM | TGI (OVCAR-4 ovarian): 3.34 µM | GI50 (MDA-MB-468 breast): 0.51 µM | TGI (MDA-MB-468 breast): 0.967 µM | GI50 (SF-295 CNS): 19.5 µM | TGI (SF-295 CNS): 34.6 µM | GI50 (MCF7 breast): 1.64 µM | TGI (MCF7 breast): 3.04 µM | GI50 (LOX IMVI melanoma): 1.84 µM | TGI (LOX IMVI melanoma): 3.47 µM | GI50 (KM12 colon): 2.12 µM | TGI (KM12 colon): 5.95 µM | GI50 (NCI-H226 lung): 1.53 µM | TGI (NCI-H226 lung): 2.93 µM | GI50 (HOP-92 NSCLC): 2 µM | TGI (HOP-92 NSCLC): 3.57 µM | GI50 (NCI-H522 lung): 1.39 µM | TGI (NCI-H522 lung): 2.69 µM | GI50 (HCT-116 colon): 1.32 µM | TGI (HCT-116 colon): 2.64 µM | GI50 (NCI/ADR-RES ovarian): 2.78 µM | TGI (NCI/ADR-RES ovarian): 5.64 µM | GI50 (SNB-75 CNS): 4.16 µM | TGI (SNB-75 CNS): 10.1 µM | GI50 (HL-60(TB) leukemia): 0.148 µM | TGI (HL-60(TB) leukemia): 0.281 µM | GI50 (IGROV1 ovarian): 2.02 µM | TGI (IGROV1 ovarian): 4.16 µM
